Key:
[1] = biological target: Proto-oncogene tyrosine-protein kinase Src (Homo sapiens, UniProt P12931); assay: Affinity for Src protein tyrosine kinase
[2] = biological target: Tyrosine-protein kinase SYK (Homo sapiens, UniProt P43405); assay: Affinity for Syk protein tyrosine kinase
[3] = biological target: T1, Tyrosine-protein kinase ZAP-70 (Homo sapiens, UniProt P43403); assay: Affinity for Zeta-chain (TCR) associated protein kinase 70 kDa (ZAP70)
T1 sequence (P43403 whole entry): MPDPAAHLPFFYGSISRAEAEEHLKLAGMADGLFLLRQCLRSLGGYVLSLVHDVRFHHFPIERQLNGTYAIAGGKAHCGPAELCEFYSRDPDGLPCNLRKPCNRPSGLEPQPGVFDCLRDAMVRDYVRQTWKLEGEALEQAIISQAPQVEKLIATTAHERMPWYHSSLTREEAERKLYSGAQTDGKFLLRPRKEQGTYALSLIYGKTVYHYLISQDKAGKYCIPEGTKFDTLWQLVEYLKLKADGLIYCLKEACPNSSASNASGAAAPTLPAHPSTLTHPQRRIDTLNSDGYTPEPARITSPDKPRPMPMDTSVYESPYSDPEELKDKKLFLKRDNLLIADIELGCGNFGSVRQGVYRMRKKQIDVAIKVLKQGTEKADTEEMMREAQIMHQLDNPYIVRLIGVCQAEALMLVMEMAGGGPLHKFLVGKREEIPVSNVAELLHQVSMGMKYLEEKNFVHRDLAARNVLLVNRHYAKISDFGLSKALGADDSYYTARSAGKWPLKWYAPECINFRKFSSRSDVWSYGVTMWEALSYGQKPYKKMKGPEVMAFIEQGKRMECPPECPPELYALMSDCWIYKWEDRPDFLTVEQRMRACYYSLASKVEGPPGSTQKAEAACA

Proto-oncogene tyrosine-protein kinase Src, sequence (P12931 2-536 limits assumed): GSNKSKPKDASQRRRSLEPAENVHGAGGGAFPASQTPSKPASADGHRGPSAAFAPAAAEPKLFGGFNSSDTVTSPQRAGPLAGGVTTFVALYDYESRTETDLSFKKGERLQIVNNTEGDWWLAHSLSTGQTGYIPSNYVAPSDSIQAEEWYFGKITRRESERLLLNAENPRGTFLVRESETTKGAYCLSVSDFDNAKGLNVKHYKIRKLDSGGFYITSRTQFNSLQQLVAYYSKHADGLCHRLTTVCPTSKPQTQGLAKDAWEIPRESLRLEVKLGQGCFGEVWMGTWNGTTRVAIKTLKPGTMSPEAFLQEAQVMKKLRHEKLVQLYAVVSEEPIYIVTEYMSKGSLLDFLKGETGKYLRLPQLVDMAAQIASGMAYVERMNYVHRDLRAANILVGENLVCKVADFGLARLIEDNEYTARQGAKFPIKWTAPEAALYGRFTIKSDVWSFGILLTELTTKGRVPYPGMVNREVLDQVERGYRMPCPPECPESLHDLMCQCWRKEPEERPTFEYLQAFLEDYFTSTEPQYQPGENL

Q: `C[C@H](NC(=O)[C@@H](CC(=O)O)Cc1ccc(OP(=O)(O)O)cc1)c1nc(Cc2ccc(Cl)c(Cl)c2)no1` was tested. Which IC50 [1] did it give?
A: Its IC50 is 53 µM.

Q: What about the IC50 [2] of the same molecule?
A: The IC50 was > 500 µM.

Q: What does the source list for `O=C(O)C[C@@H](Cc1ccc(OP(=O)(O)O)cc1)C(=O)N[C@@H](CO)c1nc(Cc2ccc(Cl)c(Cl)c2)no1`?
A: IC50 [1]: 54 µM; IC50 [2]: > 500 µM

Q: With `CC(=O)N[C@@H](Cc1ccc(OP(=O)(O)O)cc1)C(=O)N[C@@H](C)c1nc(Cc2ccc(C(F)(F)F)cc2)no1` as the molecule, how does the IC50 [1] read?
A: Its IC50 is 72 µM.

Q: Which IC50 [1] does the source give for `CC(=O)N[C@@H](Cc1ccc(OP(=O)(O)O)cc1)C(=O)N[C@@H](C)c1nc(Cc2ccc(Cl)c(Cl)c2)no1` here?
A: Its IC50 is 210 µM.

Q: `C[C@H](NC(=O)Nc1cccc2cc(OP(=O)(O)O)ccc12)c1nc(Cc2ccc(Cl)c(Cl)c2)no1` was tested. Which IC50 [1] did it give?
A: Its IC50 is 198 µM.

Q: And the IC50 [2]?
A: The IC50 was 310 µM.

Q: What does the source list for `C[C@H](NC(=O)[C@H](Cc1ccc(OP(=O)(O)O)cc1)CS(=O)(=O)C(C)(C)C)c1nc(Cc2ccc(C(F)(F)F)cc2)no1`?
A: IC50 [1]: 205 µM; IC50 [2]: > 500 µM

Q: `C[C@H](NC(=O)c1cc2cc(OP(=O)(O)O)ccc2[nH]1)c1nc(Cc2ccc(Cl)c(Cl)c2)no1` was tested. Which IC50 [1] did it give?
A: Its IC50 is 81 µM.

Q: What about the IC50 [2] of the same molecule?
A: The IC50 was 434 µM.

Q: What does the source list for `C[C@H](NC(=O)CCc1ccc(OP(=O)(O)O)cc1)c1nc(Cc2ccc(Cl)c(Cl)c2)no1`?
A: IC50 [1]: 459 µM; IC50 [2]: > 500 µM; IC50 [3]: 198 µM

Q: Which IC50 [1] does the source give for `C[C@H](NC(=O)[C@@H](CC(=O)O)Cc1ccc(OP(=O)(O)O)cc1)c1nc(Cc2ccc(C(F)(F)F)cc2)no1` here?
A: Its IC50 is 102 µM.

Q: What about the IC50 [2] of the same molecule?
A: Its IC50 is > 500 µM.

Reference: ChEMBL document CHEMBL1131855, “Nonpeptidic SH2 inhibitors of the tyrosine kinase ZAP-70” (Bioorg Med Chem Lett, 1999)
